These results are taken from ChEMBL document CHEMBL1201862, “PubChem BioAssay data set” (2004).

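Assay format: 96-well plates, 48-hour exposure. Abbreviation: GI50, concentration required for 50% inhibition of growth.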 Calls of active or inactive are those of the source. No stated cut-off is given here; in the data, active = GI50 up to about 1.1 µM and inactive = higher. Some results are limits rather than exact numbers.

Some test systems named below: SF-268; SW-620; A498; SK-MEL-5; MCF7; HCT-116; MDA-MB-435; K562; DU-145; NCI-H226; MDA-N; MOLT-4; SN12C; HOP-92; SR; RXF 393; BT-549; HOP-62; SNB-75.
Holding throughout (assay): NCI tumour cell line growth inhibition, 48 h

`O=C(N(O)c1ccccc1Cl)C(O)(c1ccccc1)c1ccccc1`: the GI50 with SF-268 is > 100 µM (inactive); with SW-620, 42.7 µM (inactive); in the test with A498, > 100 µM (inactive); in the test on SK-MEL-5, 50.6 µM (inactive); in the test with MCF7, 56.8 µM (inactive); with HCT-116, > 100 µM (inactive). The GI50 in the test on MDA-MB-435 was 65.2 µM (inactive); with K562, 24.4 µM (inactive); with DU-145 it was 59.8 µM (inactive); in the test with NCI-H226 it was > 100 µM (inactive); in the test on MDA-N it was 67.1 µM (inactive); with MOLT-4, 30.8 µM (inactive). Further, the GI50 in the test with SN12C was > 100 µM (inactive); in the test with HOP-92 it was 26.1 µM (inactive); with SR, 18.1 µM (inactive); with RXF 393, 51.2 µM (inactive); in the test with BT-549 it was 60.1 µM (inactive); in the test on HOP-62 it was > 100 µM (inactive).

For `CC(=O)OC1COC(Nn2c(=O)[nH]c3ccccc3c2=O)C(OC(C)=O)C1OC(C)=O` (stereo not drawn), the GI50 in the test with SF-268, with SW-620, in the test on A498, in the test on SK-MEL-5, in the test on MCF7 and in the test on HCT-116 was > 100 µM (inactive) in each case. Besides, the GI50 is > 100 µM (inactive) with MDA-MB-435; > 100 µM (inactive) in the test with K562; > 100 µM (inactive) in the test on DU-145; 51.9 µM (inactive) in the test with NCI-H226; > 100 µM (inactive) in the test with MDA-N; > 100 µM (inactive) with MOLT-4. Also, the GI50 in the test with SNB-75 was 30.3 µM (inactive); in the test on SN12C it was > 100 µM (inactive); in the test on HOP-92 it was > 100 µM (inactive); in the test with SR, > 100 µM (inactive); in the test with BT-549, > 100 µM (inactive); with HOP-62, > 100 µM (inactive).

For `CC(=S)NC1C(Oc2ccc3c(C)cc(=O)oc3c2)OC(CO)C(O)C1O` (stereo not drawn), the GI50 with SW-620, in the test with A498, in the test on SK-MEL-5, in the test with MCF7, in the test with HCT-116 and with MDA-MB-435 was > 100 µM (inactive) each time. Besides, the GI50 with K562, in the test with DU-145, in the test with NCI-H226, in the test with MDA-N, with MOLT-4 and in the test with SNB-75 was > 100 µM (inactive) each time. Further, the GI50 in the test on SN12C, with HOP-92, in the test with SR, in the test on RXF 393, with BT-549 and with HOP-62 was > 100 µM (inactive) each time.

As for `N/C(CCSCCSCC/C(N)=N\O)=N\O`, the GI50 in the test with SF-268, in the test with SW-620, in the test with SK-MEL-5, in the test on MCF7, in the test with HCT-116 and in the test with MDA-MB-435 was > 100 µM (inactive) each time. Besides, the GI50 with K562, with DU-145, in the test on NCI-H226, in the test on MDA-N, with MOLT-4 and in the test with SNB-75 was > 100 µM (inactive) throughout. The GI50 in the test with SN12C, in the test with HOP-92, with SR, in the test on RXF 393, in the test on BT-549 and in the test with HOP-62 was > 100 µM (inactive) in each case.

As to `O=C1[C@@H]2Cc3c([nH]c4ccccc34)C(C3CCCCC3)N2C(=O)[C@@H]2CCCN12` (stereo partly drawn), the GI50 in the test on SF-268 was 33.5 µM (inactive); in the test with SW-620, 41.2 µM (inactive); in the test with A498, 37.8 µM (inactive); in the test with SK-MEL-5 it was 17.7 µM (inactive); in the test on MCF7, 30.4 µM (inactive); with HCT-116 it was 27.5 µM (inactive). The GI50 was 34.2 µM (inactive) with MDA-MB-435; 37.2 µM (inactive) in the test on K562; 55.5 µM (inactive) in the test with DU-145; 43.1 µM (inactive) in the test on NCI-H226; 30.2 µM (inactive) with MDA-N; 23 µM (inactive) with MOLT-4. Further, the GI50 was 26.5 µM (inactive) in the test with SN12C; 29.6 µM (inactive) with HOP-92; 19.9 µM (inactive) in the test on SR; 29.9 µM (inactive) with RXF 393; 30.6 µM (inactive) with BT-549; 31.4 µM (inactive) with HOP-62.

As to `COc1ccc(-c2oc3c(CC(=O)O)cccc3c(=O)c2OC)cc1`, the GI50 in the test with SF-268, in the test on A498, in the test with SK-MEL-5, in the test on MCF7, in the test with HCT-116 and in the test on MDA-MB-435 was > 100 µM (inactive) each time. The GI50 with K562, with DU-145, with NCI-H226, in the test on MDA-N, in the test with MOLT-4 and in the test with SN12C was > 100 µM (inactive) in each case. The GI50 in the test on SR, in the test with RXF 393, in the test on BT-549 and with HOP-62 was > 100 µM (inactive) in each case.

As to `Oc1cc(CN2COc3ccccc32)c(O)cc1CNC1CCCCC1`, the GI50 in the test with SF-268 was 16.2 µM (inactive); with SW-620, 35.6 µM (inactive); in the test with A498, 22 µM (inactive); in the test with SK-MEL-5, 19.3 µM (inactive); in the test on MCF7, 20.4 µM (inactive); in the test with HCT-116 it was 18.3 µM (inactive). Further, the GI50 is 24.6 µM (inactive) with MDA-MB-435; 21.9 µM (inactive) with K562; 45.2 µM (inactive) in the test on DU-145; 17.7 µM (inactive) in the test with MDA-N; 8.79 µM (inactive) in the test on MOLT-4; 18.8 µM (inactive) with SNB-75. The GI50 in the test with SN12C is 30.7 µM (inactive); in the test on HOP-92, 28.2 µM (inactive); with SR, 20.1 µM (inactive); in the test on RXF 393 it was 21.5 µM (inactive); in the test on BT-549, 29.9 µM (inactive); in the test on HOP-62 it was 71.1 µM (inactive).

Take `Cc1cc(CCC(=O)NCCNc2c3ccccc3nc3ccccc23)cc(C)c1O[Si](C)(C)C(C)(C)C`: the GI50 is 0.215 µM (active) in the test on SW-620; 0.525 µM (active) in the test on A498; 0.242 µM (active) in the test on MCF7; 0.363 µM (active) in the test on HCT-116; 0.3 µM (active) in the test with MDA-MB-435; 0.276 µM (active) with K562. For the same compound, the GI50 in the test with DU-145 was 1.1 µM (active); in the test on NCI-H226, 17.1 µM (inactive); with MDA-N it was 0.399 µM (active); in the test with MOLT-4, 0.414 µM (active); in the test with SN12C, 15.5 µM (inactive); with HOP-92, 1.53 µM (inactive). Besides, the GI50 is 0.214 µM (active) with SR, 1.5 µM (inactive) in the test with RXF 393, 1.72 µM (inactive) in the test with BT-549 and 1.51 µM (inactive) in the test with HOP-62.

Turning to `O=C1C(Cl)=C(NCCF)C(=O)c2ncccc21`, the GI50 is 2.03 µM (inactive) with SF-268; 1.36 µM (inactive) in the test with SW-620; 4.12 µM (inactive) in the test with A498; 1 µM (active) in the test on SK-MEL-5; 1.72 µM (inactive) in the test with MCF7; 1.76 µM (inactive) in the test with HCT-116. The GI50 in the test on MDA-MB-435 was 0.212 µM (active); in the test with K562, 0.321 µM (active); with DU-145 it was 1.6 µM (inactive); in the test on NCI-H226, 1.92 µM (inactive); in the test with MDA-N, 0.2 µM (active); in the test with MOLT-4 it was 1.55 µM (inactive). Besides, the GI50 was 1.29 µM (inactive) with SNB-75; 1.91 µM (inactive) with SN12C; 9.38 µM (inactive) with SR; 1.84 µM (inactive) in the test on RXF 393; 1.63 µM (inactive) in the test with BT-549; 2.04 µM (inactive) with HOP-62.

On to `O=C(CCCN1CCC2(CC1)CC(=O)N(N1CCCCCC1)C2=O)c1ccccc1`, for which the GI50 in the test with SF-268, in the test with A498, with SK-MEL-5, in the test with MCF7, with HCT-116 and in the test on MDA-MB-435 was > 100 µM (inactive) each time. Besides, the GI50 was 70.8 µM (inactive) with K562; > 100 µM (inactive) with DU-145; > 100 µM (inactive) with NCI-H226; > 100 µM (inactive) in the test with MDA-N; > 100 µM (inactive) in the test on MOLT-4; > 100 µM (inactive) with SNB-75. The GI50 was > 100 µM (inactive) with SN12C; > 100 µM (inactive) in the test on HOP-92; 14.2 µM (inactive) in the test with SR; > 100 µM (inactive) in the test with RXF 393; > 100 µM (inactive) in the test on BT-549; > 100 µM (inactive) in the test on HOP-62.

For the compound `CCOC(=O)/C(C(=O)c1ccc([N+](=O)[O-])cc1)=C(\NS(=O)(=O)c1cc(C)c(Cl)cc1[S-])[n+]1ccc(N(C)C)cc1`, the GI50 in the test on SF-268 was 37.1 µM (inactive); with A498, 21.4 µM (inactive); in the test with SK-MEL-5, 42.8 µM (inactive); in the test with MCF7 it was 40.3 µM (inactive); in the test on HCT-116 it was 19.2 µM (inactive); with MDA-MB-435 it was 32.8 µM (inactive). Also, the GI50 in the test with K562 is 32.1 µM (inactive); in the test with DU-145 it was 31 µM (inactive); with NCI-H226 it was 51.8 µM (inactive); in the test with MDA-N, 35.5 µM (inactive); in the test on MOLT-4, 32.2 µM (inactive); with SN12C, 61.7 µM (inactive). Moreover, the GI50 in the test on HOP-92 was 3.27 µM (inactive); in the test with SR, 31.6 µM (inactive); with RXF 393, 64.1 µM (inactive); in the test on BT-549, 35.5 µM (inactive); with HOP-62 it was 29.4 µM (inactive).
